# Earlier results, collected in patent US20060088904A1, “Methods for the synthesis of astaxanthin” (priority 2004, published 2006).
# What was measured:
# [1] = test system: peroxyl radical chain reaction in liposome systems; details: appropriate dose
# [2] = test system: transformed cells as well as normal prostatic epithelium; details: cultured human cells; alone and/or in combination with other antioxidants (e.g. vitamin E)
# [3] = test system: cigarette-smoke induced lung pathology; details: ferret
Compound,suppression of peroxyl radical chain reaction [1],growth inhibition [2],protection against cigarette-smoke induced lung pathology [3]
CC1=C(/C=C/C(C)=C/C=C/C(C)=C/C=C/C=C(C)/C=C/C=C(C)/C=C/C2=C(C)C(=O)C(O)CC2(C)C)C(C)(C)CC(O)C1=O (stereo not drawn) [astaxanthin],completely suppress,,
CC(C)=CCC/C(C)=C/C=C/C(C)=C/C=C/C(C)=C/C=C/C=C(C)/C=C/C=C(C)/C=C/C=C(\C)CCC=C(C)C [lycopene],,growth inhibitory,protective
